{"source": "patent US20100166659A1", "about": "“USE OF CYANINE DYES FOR THE DIAGNOSIS OF PROLIFERATIVE DISEASES” (priority 2005, published 2010)", "key": {"[1]": {"assay": "Determination of fluorescence quantum yield of tricarbocyanine dyes", "assay_type": "physicochemical", "settings": "2 μM", "procedure": "Compounds 6-4, 5-36, 5-29, 5-41, NIR96009, NIR96005 and ICG (see Table 1) were tested for their fluorescence quantum yields at a concentration of 2 μM in either water or plasma. It is apparent from Table 2 that a substitution in the middle of the tricarbocyanine dye improves fluorescence quantum yield in both media."}, "tumors": {"tested_on": "tumors", "settings": "cited from earlier work"}, "[2]": {"settings": "remark *see Ref. (Licha et al. 1996), cited from earlier work"}}, "note": "Where two headings read alike, the source gives them in different places."}
{"molecule": "CC(/C=C/C=C1/N(CCS(=O)(=O)O)c2ccc(S(=O)(=O)[O-])cc2C1(C)C)=C\\C=C\\C1=[N+](CCS(=O)(=O)O)c2ccc(S(=O)(=O)O)cc2C1(C)C", "note": "[Compound 5-36]", "values": [{"measurement": "Fluorescence quantum yield (%) In water", "setting": "[1]", "value": 12, "unit": "%"}]}
{"molecule": "CC1(C)C(/C=C/C=C(/C=C/C=C2/N(CCCCS(=O)(=O)O)c3ccc(S(=O)(=O)[O-])cc3C2(C)C)CCS(=O)(=O)O)=[N+](CCCCS(=O)(=O)O)c2ccc(S(=O)(=O)O)cc21", "note": "[Compound 5-29]", "values": [{"measurement": "Fluorescence max. (nm) In plasma", "setting": "[1]", "value": 813, "unit": "nm"}, {"measurement": "Fluorescence quantum yield (%) In plasma", "setting": "[1]", "value": 9.8, "unit": "%"}, {"measurement": "Fluorescence quantum yield (%) In water", "setting": "[1]", "value": 8.2, "unit": "%"}]}
{"molecule": "indocyanine green [ICG]", "values": [{"measurement": "Size of ductal breast carcinomas that could be detected", "setting": "tumors; DOT, 0.25 mg/kg body weight", "value": "≥ 1", "unit": "cm"}]}
{"molecule": "CC1(C)C(/C=C/C=C/C=C/C=C2/N(CCCCS(=O)(=O)O)c3ccc4ccccc4c3C2(C)C)=[N+](CCCCS(=O)(=O)[O-])c2ccc3ccccc3c21", "note": "[ICG, indocyanine green]", "values": [{"measurement": "Fluorescence max. (nm) In plasma", "setting": "[2]", "value": 829, "unit": "nm"}, {"measurement": "Fluorescence quantum yield (%) In plasma", "setting": "[2]", "value": 3, "unit": "%"}, {"measurement": "Fluorescence quantum yield (%) In water", "setting": "[2]", "value": 1, "unit": "%"}, {"measurement": "Detection limit, tumor size", "setting": "tumors; prior-art dye", "value": 1, "unit": "cm"}]}
{"molecule": "CC1(C)C(/C=C/C=C/C=C/C=C2/N(CCCCS(=O)(=O)O)c3ccc(C(=O)NC(CC(=O)O)C(=O)O)cc3C2(C)C)=[N+](CCCCS(=O)(=O)[O-])c2ccc(C(=O)NC(CC(=O)O)C(=O)O)cc21", "note": "(stereo not drawn) [NIR96009]", "values": [{"measurement": "Fluorescence max. (nm) In plasma", "setting": "[2]", "value": 786, "unit": "nm"}, {"measurement": "Fluorescence quantum yield (%) In plasma", "setting": "[2]", "value": 7.8, "unit": "%"}, {"measurement": "Fluorescence quantum yield (%) In water", "setting": "[2]", "value": 5.8, "unit": "%"}]}
{"molecule": "CC1(C)C(/C=C/C=C/C=C/C=C2/N(CCCCS(=O)(=O)O)c3ccc(C(=O)O)cc3C2(C)C)=[N+](CCCCS(=O)(=O)[O-])c2ccc(C(=O)O)cc21", "note": "[NIR96005]", "values": [{"measurement": "Fluorescence max. (nm) In plasma", "setting": "[2]", "value": 795, "unit": "nm"}, {"measurement": "Fluorescence quantum yield (%) In plasma", "setting": "[2]", "value": 7.2, "unit": "%"}, {"measurement": "Fluorescence quantum yield (%) In water", "setting": "[2]", "value": 5.6, "unit": "%"}]}
{"molecule": "CC(/C=C/C=C1/N(CCS(=O)(=O)O)c2ccc(S(=O)(=O)[O-])cc2C1(C)C)=C\\C=C\\C1=[N+](CCS(=O)(=O)O)c2ccc(S(=O)(=O)O)cc2C1(C)C", "note": "[SF64]", "values": [{"measurement": "Fluorescence max. (nm) In plasma", "setting": "[1]", "value": 787, "unit": "nm"}, {"measurement": "Fluorescence quantum yield (%) In plasma", "setting": "[1]", "value": 17, "unit": "%"}, {"measurement": "Fluorescence quantum yield (%) In water", "setting": "[1]", "value": 11, "unit": "%"}]}
{"molecule": "CC1(C)C(/C=C/C2=C(c3ccccc3)C(=C/C=C3/N(CCCCS(=O)(=O)O)c4ccc(S(=O)(=O)[O-])cc4C3(C)C)/CCC2)=[N+](CCCCS(=O)(=O)O)c2ccc(S(=O)(=O)O)cc21", "note": "[Compound 5-41]", "values": [{"measurement": "Fluorescence max. (nm) In plasma", "setting": "[1]", "value": 799, "unit": "nm"}, {"measurement": "Fluorescence quantum yield (%) In plasma", "setting": "[1]", "value": 19, "unit": "%"}, {"measurement": "Fluorescence quantum yield (%) In water", "setting": "[1]", "value": 10, "unit": "%"}]}
